Data from ChEMBL document CHEMBL1201862, “PubChem BioAssay data set” (2004).
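Five compound concentrations were applied to cells in 96-well plates for 48 hours; endpoints were derived by simple linear interpolation of the resulting dose-response curve. GI50: concentration for 50% inhibition of growth.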 Active and inactive are the calls of the source. Rule as the data show it: active = GI50 up to about 1.1 µM and inactive = higher.

What was measured:
Assay in all cases: NCI anticancer screen, dose series, 48 h
TK-10 = test system: TK-10
NCI-H460 = test system: NCI-H460
RPMI-8226 = test system: RPMI-8226
SK-MEL-28 = test system: SK-MEL-28
UACC-62 = test system: UACC-62
MDA-N = test system: MDA-N
SK-OV-3 = test system: SK-OV-3
Hs-578T = test system: Hs-578T
HOP-62 = test system: HOP-62
HCT-116 = test system: HCT-116
NCI-H522 = test system: NCI-H522
PC-3 = test system: PC-3
CAKI-1 = test system: CAKI-1
U-251 = test system: U-251
SN12C = test system: SN12C
MDA-MB-231 = test system: MDA-MB-231
ACHN = test system: ACHN
EKVX = test system: EKVX
HOP-92 = test system: HOP-92
M14 = test system: M14

Cn1c(=S)sc2nc3ccccc3n2c1=S
GI50 (TK-10): 21.2 µM (inactive) | GI50 (NCI-H460): 9.86 µM (inactive) | GI50 (RPMI-8226): 3.78 µM (inactive) | GI50 (SK-MEL-28): 12.4 µM (inactive) | GI50 (UACC-62): 11.4 µM (inactive) | GI50 (MDA-N): 12.6 µM (inactive) | GI50 (SK-OV-3): 10.4 µM (inactive) | GI50 (Hs-578T): 21.6 µM (inactive) | GI50 (HOP-62): 17 µM (inactive) | GI50 (HCT-116): 2.49 µM (inactive) | GI50 (NCI-H522): 4.21 µM (inactive) | GI50 (PC-3): 19.6 µM (inactive) | GI50 (CAKI-1): 14.6 µM (inactive) | GI50 (U-251): 11.5 µM (inactive) | GI50 (SN12C): 10.6 µM (inactive) | GI50 (MDA-MB-231): 19.3 µM (inactive) | GI50 (ACHN): 11.3 µM (inactive) | GI50 (EKVX): 17.3 µM (inactive) | GI50 (HOP-92): 8.93 µM (inactive) | GI50 (M14): 4.47 µM (inactive)

OCC1OC(n2cnc3c(/C=C(/O)c4ccccc4)ncnc32)C(O)C1O (stereo not given)
GI50 (TK-10): 0.516 µM (active) | GI50 (NCI-H460): 0.594 µM (active) | GI50 (RPMI-8226): 1.38 µM (inactive) | GI50 (SK-MEL-28): 41.8 µM (inactive) | GI50 (UACC-62): 8.3 µM (inactive) | GI50 (MDA-N): 4.89 µM (inactive) | GI50 (SK-OV-3): 0.428 µM (active) | GI50 (Hs-578T): 14.4 µM (inactive) | GI50 (HOP-62): 5.21 µM (inactive) | GI50 (HCT-116): 1.55 µM (inactive) | GI50 (NCI-H522): 2.16 µM (inactive) | GI50 (PC-3): 4.04 µM (inactive) | GI50 (CAKI-1): 3.11 µM (inactive) | GI50 (U-251): 10.9 µM (inactive) | GI50 (SN12C): 3.19 µM (inactive) | GI50 (MDA-MB-231): 1.64 µM (inactive) | GI50 (ACHN): 0.923 µM (active) | GI50 (EKVX): 19.1 µM (inactive) | GI50 (HOP-92): > 25.1 µM (inactive) | GI50 (M14): 0.813 µM (active)

Cc1cc[n+]2c(c1)-c1cc(C)cc[n+]1CC2
GI50 (TK-10): > 100 µM (inactive) | GI50 (NCI-H460): > 100 µM (inactive) | GI50 (RPMI-8226): > 100 µM (inactive) | GI50 (SK-MEL-28): > 100 µM (inactive) | GI50 (UACC-62): > 100 µM (inactive) | GI50 (MDA-N): > 100 µM (inactive) | GI50 (SK-OV-3): > 100 µM (inactive) | GI50 (Hs-578T): > 100 µM (inactive) | GI50 (HOP-62): > 100 µM (inactive) | GI50 (HCT-116): > 100 µM (inactive) | GI50 (NCI-H522): 29.4 µM (inactive) | GI50 (PC-3): > 76.7 µM (inactive) | GI50 (CAKI-1): > 100 µM (inactive) | GI50 (U-251): > 100 µM (inactive) | GI50 (SN12C): 89.9 µM (inactive) | GI50 (MDA-MB-231): > 71.1 µM (inactive) | GI50 (ACHN): > 100 µM (inactive) | GI50 (EKVX): > 100 µM (inactive) | GI50 (HOP-92): > 100 µM (inactive) | GI50 (M14): > 100 µM (inactive)
